Laboratory results reported in patent US9586956B2, “Isoquinoline and naphthyridine derivatives” (Genentech, Inc., priority 2012, dated 2017).

Key:
[1] = molecular target: T1, purified human MAP4K4 kinase domain (Homo sapiens, UniProt O95819); assay: MAP4K4 Inhibition Assay Protocol No. 2 (Z'-LYTE FRET); type: biochemical; conditions: Assay 2; 1 nM enzyme, 10 uM ATP, 60 min
T1 construct: purified human MAP4K4 kinase domain
Text: The kinase activity of purified human MAP4K4 kinase domain was monitored using Z'-LYTE™ technology from Invitrogen to determine inhibition constants (IC50) of small molecule inhibitors. The Z'-LYTE™ biochemical assay employs a fluorescence-based, coupled-enzyme format and is based on the differential sensitivity of phosphorylated and non-phosphorylated peptides to proteolytic cleavage. In the primary reaction, the kinase transfers the gamma-phosphate of ATP to a single tyrosine, serine or threonine residue in a synthetic FRET-peptide. In the secondary reaction, a site-specific protease recognizes and cleaves non-phosphorylated FRET-peptides. Phosphorylation of FRET-peptides suppresses cleavage by the Development Reagent. Cleavage disrupts FRET between the donor (i.e., coumarin) and acceptor (i.e., fluorescein) fluorophores on the FRET-peptide, whereas uncleaved, phosphorylated FRET-peptides maintain FRET. To determine inhibition constants (IC50), compounds were serially diluted in DMSO and added to 10 uL kinase reactions containing 1 nM purified MAP4K4 enzyme, 2 uM ser/thr7 Z'-LYTE™ substrate, 10 uMATP, 50 mM Hepes (pH 7.5), 10 mM MgCl2, 1 mM EGTA, 0.01% Brij-35, and 2% DMSO. Reactions were incubated at room temperature in Corning Black 384 well plates (Corning#3573) for 60 minutes and stopped by the addition of 5 uL of Z'-LYTE™ development reagent A and incubated at room temp for 60 minutes. The plate is then analyzed on Perkin Elmer Envision by FRET mode. The high ratio of coumarin/fluorescein represents 0% phosphorylation rate while low ratio of coumarin/fluorescein represents 100% phosphorylation rate. The following equations are used to determine extent of peptide phosphorylation or inhibition: […]

[2] = molecular target: T1, purified human MAP4K4 kinase domain; assay: MAP4K4 Inhibition Assay Protocol No. 1 (Caliper LabChip, moesin-derived peptide phosphorylation); type: biochemical; conditions: Assay 1; 1 nM enzyme, 10 uM ATP, 45 min
Protocol: The kinase activity of purified human MAP4K4 kinase domain was measured by monitoring the phosphorylation of a peptide substrate derived from moesin protein (Leu-Gly-Arg-Asp-Lys-Tyr-Lys-Thr-Leu-Arg-Gln-Ile-Arg-Gln) fluorescently labeled on the N-terminus with 5-carboxyfluorescein using the Caliper LabChip technology (Caliper Life Sciences, Hopkinton, Mass.). To determine inhibition constants (IC50), compounds were serially diluted in DMSO and added to 10 uL kinase reactions containing 1 nM purified MAP4K4 enzyme, 1 uM peptide substrate, 10 uM ATP, 10 mM MgCl2, 1 mM EGTA, 50 mM Hepes pH 7.2, 1 mM DTT, 0.01% Triton X-100, and 2% DMSO. Reactions were incubated at room temperature in Perkin Elmer Proxiplates for 45 minutes and stopped by the addition of 10 uL of an EDTA-containing solution (50 mM Hepes pH 7.2, 40 mM EDTA, 0.02% Triton X-100). The fraction of phosphorylated peptide was determined as a fraction of total peptide substrate using the Caliper Lab Chip 3000 according to the manufacturer's instructions. IC50 values were determined using the four-parameter non-linear fit model.

T1 sequence (O95819 25-289 limits assumed): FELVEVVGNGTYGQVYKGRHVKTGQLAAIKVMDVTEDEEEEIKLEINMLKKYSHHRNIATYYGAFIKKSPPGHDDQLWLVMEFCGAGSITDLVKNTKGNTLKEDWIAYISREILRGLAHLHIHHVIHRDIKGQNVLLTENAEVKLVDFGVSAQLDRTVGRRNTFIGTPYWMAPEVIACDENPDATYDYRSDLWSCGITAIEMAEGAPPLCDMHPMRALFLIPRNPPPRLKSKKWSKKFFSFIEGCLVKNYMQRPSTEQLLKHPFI

SMILES | IC50 [1] [µM] | IC50 [2] [µM]
C[C@@H](O)C(=O)N1CC(NC(=O)c2cnc(N)c3nc(-c4cccc(F)c4)ccc23)C1 [Example 24, (R)-8-amino-2-(3-fluorophenyl)-N-(1-(2-hydroxypropanoyl)azetidin-3-yl)-1,7-naphthyridine-5-carboxamide] | 0.004 | 
Nc1ncc(C(=O)NC2CN(C(=O)C3CC3)C2)c2ccc(-c3ccnc(F)c3)nc12 [Example 44, 8-amino-N-(1-(cyclopropanecarbonyl)azetidin-3-yl)-2-(2-fluoropyridin-4-yl)-1,7-naphthyridine-5-Carboxamide] | 0.00263 | 
Nc1ncc(C(=O)N2CC(N(C(=O)C3CC3)C(=O)C3CC3)C2)c2ccc(-c3cccc(F)c3)nc12 [Example 31, N-(1-(8-amino-2-(3-fluorophenyl)-1,7-naphthyridine-5-carbonyl)azetidin-3-yl)-N-(cyclopropanecarbonyl)cyclopropanecarboxamide] | 0.284 | 
Cn1ncnc1-c1cnc(N)c2cc(-c3cccc(F)c3)ccc12 [Example 12, 7-(3-fluorophenyl)-4-(2-methyl-1,2,4-triazol-3-yl)isoquinolin-1-amine] | 0.218 | 
Nc1ncc(C(=O)NC2CN(C(=O)N3CCOCC3)C2)c2ccc(-c3cccc(F)c3)nc12 [Example 27, 8-amino-2-(3-fluorophenyl)-N-(1-(morpholine-4-carbonyl)azetidin-3-yl)-1,7-naphthyridine-5-carboxamide] | 0.0147 | 
CC(C)CNC(=O)c1cnc(N)c2nc(-c3cccc(F)c3)ccc12 [Example 40, 8-amino-2-(3-fluorophenyl)-N-isobutyl-1,7-naphthyridine-5-carboxamide] | 0.00563 | 
Cn1cnc(-c2cnc(N)c3cc(-c4cccc(F)c4)ccc23)c1 [Example 10, 7-(3-fluorophenyl)-4-(1-methylimidazol-4-yl)isoquinolin-1-amine] | 0.0287 | 
Nc1ncc(C(=O)NC2CN(S(N)(=O)=O)C2)c2ccc(-c3cccc(F)c3)nc12 [Example 21, 8-amino-2-(3-fluorophenyl)-N-(1-sulfamoylazetidin-3-yl)-1,7-naphthyridine-5-carboxamide] | 0.0018 | 
CN(C)C(=O)CN1CCN(C(=O)c2cnc(N)c3cc(-c4cccc(F)c4)ccc23)CC1 [Example 52, 2-[4-[1-amino-7-(3-fluorophenyl)isoquinoline-4-carbonyl]piperazin-1-yl]-N,N-dimethyl-acetamide] |  | 1.5
CC(=O)N1CC(NC(=O)c2cnc(N)c3cc(-c4cccc(F)c4)ccc23)C1 [Example 9, N-(1-acetylazetidin-3-yl)-1-amino-7-(3-fluorophenyl)isoquinoline-4-carboxamide] |  | 0.0506
NC(=O)c1nc(CNC(=O)c2cnc(N)c3cc(-c4cccc(F)c4)ccc23)no1 [Example 61, 3-[[[1-amino-7-(3-fluorophenyl)isoquinoline-4-carbonyl]amino]methyl]-1,2,4-oxadiazole-5-carboxamide] |  | 0.0368
CC(=O)N1CCN(C(=O)c2cnc(N)c3cc(-c4cccc(F)c4)ccc23)CC1 [Example 49, 1-[4-[1-amino-7-(3-fluorophenyl)isoquinoline-4-carbonyl]piperazin-1-yl] ethanone] |  | 2.6
CS(=O)(=O)N1CCN(C(=O)c2cnc(N)c3cc(-c4cccc(F)c4)ccc23)CC1 [Example 48, [1-amino-7-(3-fluorophenyl)-4-isoquinolyl]-(4-methylsulfonylpiperazin-1-yl)methanone] |  | 4.2

Next, values leading:

IC50 [1] [µM] | IC50 [2] [µM] | SMILES
0.134 |  | CCOC(=O)c1cnc(N)c2nc(-c3ccc(OC)cc3Cl)ccc12 [Example 155, ethyl 8-amino-2-(2-chloro-4-methoxy-phenyl)-1,7-naphthyridine-5-carboxylate]
0.00184 |  | CCOC(=O)c1cnc(N)c2nc(-c3cc(F)cc(F)c3)ccc12 [Example 145, ethyl 8-amino-2-(3,5-difluoro-phenyl)-1,7-naphthyridine-5-carboxylate]
0.00216 |  | CCOC(=O)c1cnc(N)c2nc(-c3cccc(OC(F)(F)F)c3)ccc12 [Example 139, ethyl 8-amino-2-[3-(trifluoro-methoxy)phenyl]-1,7-naphthyridine-5-carboxylate]
 | 0.0852 | Nc1ncc(C(=O)NC2CCCC(O)C2)c2ccc(-c3cccc(F)c3)cc12 (stereo not drawn) [Example 70, 1-amino-7-(3-fluorophenyl)-N-(3-hydroxycyclohexyl) isoquinoline-4-carboxamide]
 | 0.0454 | Nc1ncc(C(=O)NC2COC2)c2ccc(-c3cccc(F)c3)cc12 [Example 115, 1-amino-7-(3-fluorophenyl)-N-(oxetan-3-yl)isoquinoline-4-carboxamide]
 | 0.35 | Nc1ncc(C(=O)NCCN2CCC(O)CC2)c2ccc(-c3cccc(F)c3)cc12 [Example 69, 1-amino-7-(3-fluorophenyl)-N-[2-(4-hydroxy-1-piperidyl)ethyl] isoquinoline-4-carboxamide]
 | 0.0148 | COc1ccc(NC(=O)c2cnc(N)c3cc(-c4cccc(F)c4)ccc23)cc1 [Example 75, 1-amino-7-(3-fluorophenyl)-N-(4-methoxyphenyl) isoquinoline-4-carboxamide]
 | 0.141 | COc1ccccc1CNC(=O)c1cnc(N)c2cc(-c3cccc(F)c3)ccc12 [Example 90, 1-amino-7-(3-fluorophenyl)-N-[(2-methoxyphenyl)methyl]isoquinoline-4-carboxamide]
 | 0.0386 | Nc1ncc(C(=O)NC(CO)CO)c2ccc(-c3cccc(F)c3)cc12 [Example 114, 1-amino-7-(3-fluorophenyl)-N-[2-hydroxy-1-(hydroxy-methyl)ethyl]isoquinoline-4-carboxamide]
 | 0.135 | CC(C)NC(=O)c1cnc(N)c2cc(-c3cccc(F)c3)ccc12 [Example 102, 1-amino-7-(3-fluorophenyl)-N-isopropyl-isoquinoline-4-carboxamide]
 | 0.0503 | CCC(=O)N1CC(NC(=O)c2cnc(N)c3cc(-c4cccc(F)c4)ccc23)C1 [Example 125, 1-amino-7-(3-fluorophenyl)-N-(1-propanoylazetidin-3-yl)isoquinoline-4-carboxamide]
 | 0.34 | Nc1ncc(C(=O)NCCCN2CCOCC2)c2ccc(-c3cccc(F)c3)cc12 [Example 64, 1-amino-7-(3-fluorophenyl)-N-(3-morpholinopropyl) isoquinoline-4-carboxamide]
 | 0.115 | NC(=O)CNC(=O)c1cnc(N)c2cc(-c3cccc(F)c3)ccc12 [Example 103, 1-amino-N-(2-amino-2-oxo-ethyl)-7-(3-fluorophenyl) isoquinoline-4-carboxamide]
 | 0.507 | Nc1ncc(C(=O)NCCN2CCCC2=O)c2ccc(-c3cccc(F)c3)cc12 [Example 77, 1-amino-7-(3-fluorophenyl)-N-[2-(2-oxopyrrolidin-1-yl)ethyl]isoquinoline-4-carboxamide]
 | 0.077 | Nc1ncc(C(=O)NCc2cccnc2)c2ccc(-c3cccc(F)c3)cc12 [Example 94, 1-amino-7-(3-fluorophenyl)-N-(3-pyridylmethyl) isoquinoline-4-carboxamide]
 | 0.0127 | Nc1ncc(C(=O)Nc2ccc(CO)cc2)c2ccc(-c3cccc(F)c3)cc12 [Example 63, 1-amino-7-(3-fluorophenyl)-N-[4-(hydroxymethyl)phenyl]isoquinoline-4-carboxamide]
 | 0.557 | C[C@@H](NC(=O)c1cnc(N)c2cc(-c3cccc(F)c3)ccc12)C(N)=O [Example 84, 1-amino-N-[(1R)-2-amino-1-methyl-2-oxo-ethyl]-7-(3-fluorophenyl) isoquinoline-4-carboxamide]
